What was measured:
[1] = solubility behaviour in ethanol/water mixtures; format: physicochemical
Description: This effect may be used to initiate precipitation and crystallisation by the addition of water to a solution of (+)- or (−)-mefloquine hydrochloride and also to apply seeding techniques using seeds with a desired morphology such as crystalline form A in cubic or cube-like form. However, other non-solvents may be used to initiate precipitation from solution in a solvent such as hydrocarbons (hexane, heptane, cyclohexane and methylcyclohexane) or ethers (t-butyl methyl ether).

[2] = grinding of form A sample, X-ray powder diffraction; format: physicochemical; settings: slightly ground to particle size approximately 1 to 10 μm
Method: This sample was slightly ground to reduce the particle size to approximately 1 to 10 μm and to avoid this textural effect. The strongest peak intensities are thus reduced and a few of the small peaks disappear.
Powder X-ray Diffraction (PXRD): PXRD is performed on a Philips 1710 powder X-ray diffractometer using CuKα radiation. D-spacings are calculated from the 2θ values using the wavelength of 1.54060 Å. Generally, 2θ values are within an error of ±0.1-0.2°. The experimental error on the d-spacing values is therefore dependent on the peak location.

[3] = suspensions of mixtures of forms A, B and C, 2° C. to 75° C.

With `Cl.OC(c1cc(C(F)(F)F)nc2c(C(F)(F)F)cccc12)C1CCCCN1` (stereo not drawn) [(+)- or (−)-mefloquine hydrochloride] the “solubility on addition of certain amounts of water to pure ethanol” value ([1]; lower water amounts) was “increased” and the “solubility relative to pure ethanol” value ([1]; water content of above 50% (v/v)) was “lower than in pure ethanol”.
In the case of `Cl.OC(c1cc(C(F)(F)F)nc2c(C(F)(F)F)cccc12)C1CCCCN1` (stereo not shown) [form A], the “crystal form after grinding” value [2] is reported as “still present after grinding”.
With `Cl.OC(c1cc(C(F)(F)F)nc2c(C(F)(F)F)cccc12)C1CCCCN1` (stereo not shown) [form B] the “relative stability of crystalline forms” value [3] was “metastable”.
